Laboratory results as given in patent publication US12351574B2, “Selective ligands for modulation of GIRK channels” (Northeastern University, priority 2018, dated 2025).

Experiments:
GIRK1/2(I-V) = target: T1, GIRK1/2(I-V) (UniProt P48542+P48549, I97V); assay: TEVC in Xenopus oocytes, single mutant GIRK1/2(I-V); format: cell-based, human GIRK1, mouse GIRK2; conditions: GIRK1/2(I-V) single mutant
T1 construct: expressed in transfected cells; host or cells: Xenopus laevis oocytes (cRNA injection)
T1 sequence (P48549 1-501): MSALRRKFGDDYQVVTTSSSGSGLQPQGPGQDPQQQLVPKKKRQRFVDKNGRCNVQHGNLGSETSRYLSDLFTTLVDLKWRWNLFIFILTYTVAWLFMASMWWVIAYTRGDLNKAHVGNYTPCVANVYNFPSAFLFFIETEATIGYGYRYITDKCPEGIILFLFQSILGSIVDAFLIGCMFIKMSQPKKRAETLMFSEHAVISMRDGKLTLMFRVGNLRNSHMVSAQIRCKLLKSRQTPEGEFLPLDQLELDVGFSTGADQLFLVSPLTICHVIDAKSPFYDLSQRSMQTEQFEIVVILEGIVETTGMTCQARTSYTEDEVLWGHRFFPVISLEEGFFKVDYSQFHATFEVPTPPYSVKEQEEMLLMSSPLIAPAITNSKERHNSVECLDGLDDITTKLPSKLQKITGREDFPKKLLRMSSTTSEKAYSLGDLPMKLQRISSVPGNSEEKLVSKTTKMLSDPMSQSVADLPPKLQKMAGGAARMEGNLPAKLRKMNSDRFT
T1 sequence (P48542 1-425 I97V): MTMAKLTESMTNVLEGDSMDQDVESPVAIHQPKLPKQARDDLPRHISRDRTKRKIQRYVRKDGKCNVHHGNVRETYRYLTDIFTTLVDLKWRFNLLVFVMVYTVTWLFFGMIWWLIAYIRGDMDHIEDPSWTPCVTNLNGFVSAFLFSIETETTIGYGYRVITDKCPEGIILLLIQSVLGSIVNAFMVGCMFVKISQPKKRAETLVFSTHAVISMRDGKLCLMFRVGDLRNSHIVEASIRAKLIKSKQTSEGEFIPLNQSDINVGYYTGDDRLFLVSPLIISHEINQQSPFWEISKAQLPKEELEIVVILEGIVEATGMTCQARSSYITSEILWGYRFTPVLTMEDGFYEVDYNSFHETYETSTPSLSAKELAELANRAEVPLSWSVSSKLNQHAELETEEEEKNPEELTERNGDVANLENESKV
Text: Molecular biology: For Xenopus oocyte expression, human GIRK1 and human GIRK4 cDNAs were subcloned into pGEMHE. For mammalian expression, human GIRK1 and human GIRK4 cDNAs were subcloned into pcDNA3 and pcDNA3.1/V5-His B, respectively (Invitrogen). Mouse GIRK2 cDNA was subcloned in the dual-function vector, pXoom. Point mutations were introduced using a standard Pfu-based mutagenesis technique according to the QuikChange protocol (Agilent). Mutations were verified by sequencing.
Electrophysiology of oocytes: Whole-oocyte currents were measured by conventional two-electrode voltage clamp (TEVC) with a GeneClamp 500 amplifier (Axon Instruments). Agarose cushion microelectrodes were filled with 1.5% (w/v) agarose in 3 M KCl and were used with resistances between 0.1 and 1.5 megaohms. […] Barium-sensitive basal currents from both groups, 1) Vehicle, 2) single concentration at 10 μM and 3) multiple concentrations of ML297 or GAT compounds in the presence of HK solution, were assessed at −80 mV using TEVC. Barium-sensitive currents were normalized to average basal current in the vehicle solutions. The HK solution contained the following: 96 mM KCl, 1 mM NaCl, 1 mM MgCl2, 5 mM KOH/HEPES, pH 7.4. The barium solution consisted of HK+10 mM BaCl2. Five to ten oocytes from the same batch (same frog) were recorded for each group, and the experiments were repeated in at least four batches. Data acquisition and analysis were carried out using pClamp9 (Molecular Devices) and OriginPro (Microcal) software.
To test these computational predictions, the inventors mutated each or both of the two M1 key wild-type GIRK4 subunit residues to the corresponding GIRK2 residues (GIRK4-V92I, GIRK4-T94V, GIRK4-V92I/T94V or GIRK4-dm) and vice-versa the GIRK2 residues to the corresponding GIRK4 ones (GIRK2-I97V, GIRK2-V99T, GIRK2-I97V/V99T or GIRK2-dm) (FIG. 35). […]

light-dark box (LD) test = format: in vivo, rat; conditions: 10 and 30 mg/kg
Description: Light-dark box: Light-Dark Box test was preformed using a cage 52×100×39 cm divided into two equal sections by an opening. One section is brightly illuminated whereas the other section is dark. Animals were injected 30 min prior to testing with vehicle or ligand and then placed into the light side with immediate access to explore the entire cage. Time spent in the illuminated section was analyzed. The chamber was cleaned between each experiment.

EC50 (GIRK1/2(I-V)): 500 ± 110 nM | EMAX (GIRK1/2(I-V)): 1.61±0.03 | Emax (GIRK1/2(I-V); read-out: EMAX, % of the control GIRK1/2): 42% | time spent in the light compartment versus vehicle (in words) (light-dark box (LD) test): no difference
SMILES: Cc1cc(NC(=O)Nc2ccc(Br)s2)n(-c2ccccc2)n1 [GAT1508, 1-(5-bromothiophen-2-yl)-3-(3-methyl-1-phenyl-1H-pyrazol-5-yl)urea]
